Experimental findings from patent US8779158B2, “Trisubstituted pyrazoles as acetylcholine receptor modulators” (Janssen Pharmaceutica NV, priority 2008, dated 2014) are described below.

In the first assay the target is T1, hα7-wt nAChR (Homo sapiens, UniProt P36544).
T1 construct: expressed in transfected cells
T1 sequence (P36544 23-502): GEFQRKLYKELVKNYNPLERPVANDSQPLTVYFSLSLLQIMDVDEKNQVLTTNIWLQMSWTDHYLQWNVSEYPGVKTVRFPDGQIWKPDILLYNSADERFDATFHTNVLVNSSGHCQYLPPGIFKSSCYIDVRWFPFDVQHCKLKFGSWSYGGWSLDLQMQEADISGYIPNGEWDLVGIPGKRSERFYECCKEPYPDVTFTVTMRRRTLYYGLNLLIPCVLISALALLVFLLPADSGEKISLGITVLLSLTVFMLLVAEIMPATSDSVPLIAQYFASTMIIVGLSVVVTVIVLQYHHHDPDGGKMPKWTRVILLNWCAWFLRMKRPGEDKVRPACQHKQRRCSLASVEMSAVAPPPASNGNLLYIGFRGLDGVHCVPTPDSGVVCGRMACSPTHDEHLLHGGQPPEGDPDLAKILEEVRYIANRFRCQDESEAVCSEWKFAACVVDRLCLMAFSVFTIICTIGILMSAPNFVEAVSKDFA
Kind of assay: Ca2+ flux imaging (FDSS) (Protocol B), potentiation of the choline response. The assay is classed as cell-based. Particulars: Ca2+ assay as described in D.1; "<5" = activity did not reach a top plateau at maximal concentration. The procedure: Ca^2+ Flux Imaging (FDSS) (Protocol B)
• Hanks buffered saline solution (HBSS, Invitrogen, Belgium), supplemented with 10 mM HEPES (Invitrogen, Belgium), CaCl2 to a final concentration of 5 mM, 0.1% Bovine serum albumin (Sigma-Aldrich NV, Belgium). b) Calcium-Sensitive Dye—Fluo-4AM • Fluo-4AM (Molecular Probes, USA) was dissolved in DMSO containing 10% Pluronic acid (Molecular Probes, USA) to give a stock solution which was diluted in assay buffer supplemented with 5 mM probenicid (Sigma, Aldrich NV, Belgium) to give a final concentration of 2 μM. c) 384-Well Plates • Black 384 well plate black/clear plates, PDL pre-coated (Corning, Incorporated, USA) d) Calcium Flux Measurement • A Functional drug screening system (FDSS, Hamamatsu) was used to measure intracellular free-calcium flux signals. Method
Monolayers of hα7-wt nAChR-expressing cells were grown in multi-well plates, in particular black-sided, transparent bottomed 384 well plates coated with poly-D-lysine for 24 hours prior to loading with a fluorescent calcium indicator, in a particular embodiment loading with fluo-4AM for up to 120 minutes.
PAM activity was detected in real time by applying the compounds to be tested to the loaded cells along with a α7 nicotinic receptor agonist during constant monitoring of cellular fluorescence in a FDSS. Compounds giving peak fluorescent responses greater than the response due to agonist alone, were considered to be α7 nAChR PAM's. In a particular embodiment, the α7 nicotinic receptor agonist was choline, a more particular embodiment choline applied at a sub-maximal concentration of 100 μM. In a further setting of the present invention the compounds to be tested were applied prior to the α7 nicotinic receptor agonist, in a particular embodiment up to 10 minutes prior to the agonist.
A control response to choline was calculated on each plate from the difference in peak in fluorescence in wells receiving either choline or assay buffer alone. Compounds of the present invention were tested at a concentration range from 0.01 μM to 30 μM. Compounds were considered to have an interesting activity when they potentiated the choline signal at least with 200% when tested at a concentration of 30 μM (the efficacy of 100 μM choline was defined as 100% in the absence of a PAM). An EC50 (or pEC50) was determined as a concentration relating to half the maximal effect, when a clear sigmoidal curve with top plateau was obtained.
Turning to `Cc1cc(-c2cc(Nc3cc(F)c(F)c(F)c3)nn2CC(=O)NC2CCC2)cc(C)n1` [compound 179], the EC50 is 0.115 µM.
The same measure, in the same setting: the figure for `CNC(=O)Cn1nc(Nc2cccc(C(F)(F)F)c2)cc1-c1cc(C)nc(C)c1` [compound 117] is 1.48 µM.
On the same count and under the same terms, with `CCNC(=O)Cn1nc(Nc2cccc(C(F)(F)F)c2)cc1-c1ccc2c(c1)OCCO2` [compound 79] the figure was 0.219 µM; with `Cc1cc(-c2cc(Nc3ccc(F)c(F)c3)nn2CCC(=O)N(C)C)cc(Cl)n1` [compound 60], 0.501 µM; with `CCNc1cc(-c2cc(Nc3ccc(F)c(F)c3F)nn2C[C@H](C)O)ccn1` [compound 133], 0.776 µM.
Same read-out and setting: with `CCNC(=O)Cn1nc(Nc2cccc(OC(F)(F)F)c2)cc1-c1ccnc(C)c1` [compound 37] the figure was 1 µM; with `CCNC(=O)Cn1nc(Nc2cccc(OC(F)(F)F)c2)cc1-c1cccnc1` [compound 17], > 10 µM; with `Cc1cc(-c2cc(Nc3cccc(OC(F)(F)F)c3)nn2CC(=O)NC2CCC2)cc(C)n1` [compound 180], 0.372 µM.
With `CC[C@H](O)Cn1nc(Nc2cc(OC)cc(C(F)(F)F)c2)cc1-c1ccnc(C)c1Cl` [compound 115], the EC50 is 1.26 µM.
The same measure, in the same setting: the figure for `Cc1cc(-c2cc(Nc3cc(F)c(F)c(F)c3)nn2C[C@H](C)O)ccn1` [compound 44] is 1.23 µM; for `CC[C@H](O)Cn1nc(Nc2cc(F)cc(F)c2)cc1-c1ccnc(Cl)c1` [compound 47] it is 0.437 µM.
Take `CNC(=O)Cn1nc(Nc2cc(OC)cc(C(F)(F)F)c2)cc1-c1ccnc(C)c1C` [compound 50]: the EC50 is 6.17 µM.
The same measure, in the same setting: the figure for `CCNC(=O)Cn1nc(Nc2ccc(F)c(C(F)(F)F)c2)cc1-c1ccc2c(c1)OCCO2` [compound 81] is 0.214 µM.
On to `CCNC(=O)Cn1nc(Nc2ccc(F)c(F)c2F)cc1-c1cc(C)nc(C)c1` [compound 148], for which the EC50 is 0.468 µM.
The same measure, in the same setting: with `CC[C@H](O)Cn1nc(Nc2cccc(C(F)(F)F)c2)cc1-c1ccnc(COC)c1` [compound 113] the figure was 1.32 µM; with `CCNc1cc(-c2cc(Nc3cc(F)cc(C(F)(F)F)c3)nn2C[C@H](C)O)ccn1` [compound 64], 1.41 µM; with `CNC(=O)Cn1nc(Nc2ccc(F)c(F)c2)cc1-c1ccnc(NC)c1` [compound 61], > 10 µM.
For `Cc1ccnc(-c2cc(Nc3ccc(F)c(F)c3)nn2C[C@H](C)O)c1` [compound 24], the EC50 was 2.14 µM.
Regarding `COc1cccc(-c2cc(Nc3ccc(F)c(F)c3)nn2CCC(=O)N(C)C)c1Cl` [compound 11], the EC50 was 0.145 µM.
Consider `Cc1cc(-c2cc(Nc3ccc(F)c(C(F)(F)F)c3)nn2C[C@H](C)O)cc(N(C)C)n1` [compound 69], for which the EC50 was 0.794 µM.
As for `CNC(=O)Cn1nc(Nc2cc(F)cc(C(F)(F)F)c2)cc1-c1ccncc1C` [compound 30], the EC50 was > 10 µM.
On the same count and under the same terms, with `Cc1cc(-c2cc(Nc3cccc(Cl)c3F)nn2CC(=O)NC2CCC2)cc(C)n1` [compound 175] the figure was 0.126 µM; with `Cc1cc(-c2cc(Nc3cccc(C(F)(F)F)c3)nn2CCC(=O)N(C)C)cc(C)n1` [compound 178], 0.55 µM; with `Cc1ccnc(-c2cc(Nc3cc(F)cc(F)c3)nn2CCC(=O)N(C)C)c1` [compound 26], 2.75 µM.

The same assay, now with this note: Ca2+ assay as described in D.1; read-out: % Efficacy.
On to `Cc1cc(-c2cc(Nc3cc(F)c(F)c(F)c3)nn2CC(=O)NC2CCC2)cc(C)n1` [compound 179], for which the Emax came out at 793%.
For `CNC(=O)Cn1nc(Nc2cccc(C(F)(F)F)c2)cc1-c1cc(C)nc(C)c1` [compound 117], the Emax came to 835%.
Same read-out and setting: the figure for `CCNc1cc(-c2cc(Nc3ccc(F)c(F)c3F)nn2C[C@H](C)O)ccn1` [compound 133] is 409%; for `Cc1cc(-c2cc(Nc3cccc(OC(F)(F)F)c3)nn2CC(=O)NC2CCC2)cc(C)n1` [compound 180] it is 768%.
The same measure, in the same setting: with `CC[C@H](O)Cn1nc(Nc2cc(OC)cc(C(F)(F)F)c2)cc1-c1ccnc(C)c1Cl` [compound 115] the figure was 516%; with `Cc1cc(-c2cc(Nc3cc(F)c(F)c(F)c3)nn2C[C@H](C)O)ccn1` [compound 44], 400%.
On the same count and under the same terms, with `CNC(=O)Cn1nc(Nc2cc(OC)cc(C(F)(F)F)c2)cc1-c1ccnc(C)c1C` [compound 50] the figure was 496%; with `CCNc1cc(-c2cc(Nc3cc(F)cc(C(F)(F)F)c3)nn2C[C@H](C)O)ccn1` [compound 64], 500%; with `Cc1ccnc(-c2cc(Nc3ccc(F)c(F)c3)nn2C[C@H](C)O)c1` [compound 24], 300%.
For `Cc1cc(-c2cc(Nc3ccc(F)c(C(F)(F)F)c3)nn2C[C@H](C)O)cc(N(C)C)n1` [compound 69], the Emax amounted to 400%.
`Cc1cc(-c2cc(Nc3cccc(Cl)c3F)nn2CC(=O)NC2CCC2)cc(C)n1` [compound 175]: the Emax was found to be 462%.
Same read-out and setting: with `Cc1cc(-c2cc(Nc3cccc(C(F)(F)F)c3)nn2CCC(=O)N(C)C)cc(C)n1` [compound 178] the figure was 627%.
The same measure, in the same setting: the figure for `Cc1ccnc(-c2cc(Nc3cc(F)cc(F)c3)nn2CCC(=O)N(C)C)c1` [compound 26] is 800%.
